From publication PMC3156385 (Chemical research in toxicology, 2011) come the findings set out here.

Each structure is given as a SMILES string.

Format in all cases: binding
The target of data set [1] is T1, rat liver P450 1A1 (Rattus norvegicus, UniProt P00185).
T1 sequence (P00185 1-524): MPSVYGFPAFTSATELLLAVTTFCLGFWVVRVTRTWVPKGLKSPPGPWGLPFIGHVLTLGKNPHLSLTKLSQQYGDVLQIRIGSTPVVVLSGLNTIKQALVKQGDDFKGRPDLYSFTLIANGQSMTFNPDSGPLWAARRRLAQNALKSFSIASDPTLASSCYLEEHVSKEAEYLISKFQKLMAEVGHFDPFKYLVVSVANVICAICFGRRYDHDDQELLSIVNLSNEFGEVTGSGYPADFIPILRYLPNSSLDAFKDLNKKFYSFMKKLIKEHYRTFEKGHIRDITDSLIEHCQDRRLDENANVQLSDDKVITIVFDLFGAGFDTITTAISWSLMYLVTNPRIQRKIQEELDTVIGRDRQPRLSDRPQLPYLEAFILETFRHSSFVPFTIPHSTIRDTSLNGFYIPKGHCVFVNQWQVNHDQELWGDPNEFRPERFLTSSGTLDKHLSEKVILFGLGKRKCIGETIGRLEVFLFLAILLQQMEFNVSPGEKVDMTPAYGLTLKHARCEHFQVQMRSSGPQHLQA
The following applies: 1.5 µM rat P450 1A1 (low-spin); 1.25~80 µM BSC.

For data set [2], the target named is T2, rat liver P450 1A2 (Rattus norvegicus, UniProt P04799).
T2 sequence (P04799 1-513): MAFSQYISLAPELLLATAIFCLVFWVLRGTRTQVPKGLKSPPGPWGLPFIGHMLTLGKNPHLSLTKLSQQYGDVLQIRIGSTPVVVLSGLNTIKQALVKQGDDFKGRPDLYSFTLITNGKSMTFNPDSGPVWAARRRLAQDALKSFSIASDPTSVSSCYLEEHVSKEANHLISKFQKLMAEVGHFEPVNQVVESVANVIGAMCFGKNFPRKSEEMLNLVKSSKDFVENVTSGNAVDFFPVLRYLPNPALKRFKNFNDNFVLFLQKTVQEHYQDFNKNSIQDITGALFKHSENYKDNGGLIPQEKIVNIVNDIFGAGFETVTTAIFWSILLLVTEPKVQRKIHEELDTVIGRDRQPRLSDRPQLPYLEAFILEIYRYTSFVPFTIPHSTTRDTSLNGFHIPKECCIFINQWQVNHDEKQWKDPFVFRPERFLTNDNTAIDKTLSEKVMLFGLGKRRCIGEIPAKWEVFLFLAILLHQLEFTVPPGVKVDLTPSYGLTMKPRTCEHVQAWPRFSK

The target of data set [3] is T3, rabbit liver P450 1A2 (Oryctolagus cuniculus, UniProt P00187).
T3 sequence (P00187 1-516): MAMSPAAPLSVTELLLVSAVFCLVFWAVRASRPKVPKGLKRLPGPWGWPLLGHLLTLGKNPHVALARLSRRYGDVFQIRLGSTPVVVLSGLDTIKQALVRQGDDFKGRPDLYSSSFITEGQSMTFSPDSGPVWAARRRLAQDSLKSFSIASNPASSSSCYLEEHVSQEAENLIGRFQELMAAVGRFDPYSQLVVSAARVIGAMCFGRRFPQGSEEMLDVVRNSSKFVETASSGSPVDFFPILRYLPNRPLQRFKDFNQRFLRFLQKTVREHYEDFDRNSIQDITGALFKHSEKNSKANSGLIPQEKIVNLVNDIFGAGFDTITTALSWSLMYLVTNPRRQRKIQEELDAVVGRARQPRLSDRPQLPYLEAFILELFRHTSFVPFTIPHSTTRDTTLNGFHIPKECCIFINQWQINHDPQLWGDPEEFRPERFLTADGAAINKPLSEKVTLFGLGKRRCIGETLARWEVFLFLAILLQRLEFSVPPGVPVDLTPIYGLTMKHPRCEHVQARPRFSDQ

As for `N#C[Se]Cc1ccccc1` [BSC, benzyl selenocyanate], the spectral changes result in data set [1] was “did not show any spectral changes”. Besides, the values for the Kd in data set [2] and in data set [3] were 16 ± 2.4 µM and 90 ± 29 µM, respectively.
